Measured values published in ChEMBL document CHEMBL3580594, “Synthesis and biological evaluation of 4-substituted fluoronucleoside analogs for the treatment of hepatitis B virus infection” (J Med Chem, 2015).

Columns and labels:
Duck hepatitis B virus [1] = assay: Antiviral activity against duck Hepatitis B virus infected in duck assessed as inhibition of viral DNA replication in serum at 0.04 mg/kg/day, po treatment initiated at day 5 after infection relative to control; assay type: functional; settings: 120 h
Hepatitis B virus [2] = assay: Antiviral activity against Hepatitis B virus in HepG2.2.15 cells assessed as inhibition of intracellular viral DNA replication at 1 uM after 9 days by real-time FQ-PCR analysis; assay type: functional; settings: HepG2 2.2.15, 216 h
Hepatitis B virus [3] = assay: Antiviral activity against Hepatitis B virus in HepG2.2.15 cells assessed as inhibition of extracellular viral DNA replication at 0.2 uM after 6 days by real-time FQ-PCR analysis; assay type: functional; settings: HepG2 2.2.15, 144 h
Hepatitis B virus [4] = assay: Antiviral activity against Hepatitis B virus in HepG2.2.15 cells assessed as inhibition of extracellular viral DNA replication at 0.2 uM after 3 days by real-time FQ-PCR analysis; assay type: functional; settings: HepG2 2.2.15, 72 h
Mus musculus [5] = assay: Toxicity in KM mouse assessed as peripheral WBC number in blood per liter at 40 mg/kg, po single dose after 48 hrs (reference value: 11.10 x 2.69/L x 10^-9); assay type: organism-based; settings: in vivo
Hepatitis B virus [6] = assay: Antiviral activity against Hepatitis B virus in HepG2.CW cells assessed as inhibition of viral DNA replication at 1 uM after 9 days by real-time FQ-PCR analysis; assay type: functional; settings: 216 h
Mus musculus [7] = assay: Toxicity in KM mouse assessed as peripheral WBC number in blood per liter at 80 mg/kg, po single dose after 48 hrs (reference value: 11.10 x 2.69/L x 10^-9); assay type: organism-based; settings: in vivo
Rattus norvegicus [8] = assay: In vivo drug metabolism in rat bile sample assessed as 1-((2R,3S,4R,5R)-5-azido-3-fluoro-4-hydroxy-5-(hydroxymethyl)tetrahydrofuran-2-yl)-4-(2-hydroxycyclopropylamino)pyrimidin-2(1H)-one formation by LC-MS/MS analysis; assay type: ADME, organism-based
Mus musculus [9] = assay: Toxicity in KM mouse assessed as micronucleus frequency in bone marrow polychromatic erythrocyte at 10 mg/kg, po single dose after 48 hrs (reference value: 1.20 +/- 0.45 %); assay type: organism-based; settings: in vivo
Duck hepatitis B virus [10] = assay: Antiviral activity against duck Hepatitis B virus infected in duck assessed as inhibition of viral DNA replication in liver at 0.2 mg/kg/day, po treatment initiated at day 10 after infection relative to control; assay type: functional; settings: 240 h
Mus musculus [11] = assay: Toxicity in KM mouse assessed as micronucleus frequency in bone marrow polychromatic erythrocyte at 20 mg/kg, po single dose after 48 hrs (reference value: 1.20 +/- 0.45 %); assay type: organism-based; settings: in vivo
Hepatitis B virus [12] = assay: Antiviral activity against Hepatitis B virus in HepG2.2.15 cells assessed as inhibition of extracellular viral DNA replication at 5 uM after 9 days by real-time FQ-PCR analysis; assay type: functional; settings: HepG2 2.2.15, 216 h
Duck hepatitis B virus [13] = assay: Antiviral activity against duck Hepatitis B virus infected in duck assessed as inhibition of viral DNA replication in liver at 0.04 mg/kg/day, po measured after 3 days of treatment withdrawal; assay type: functional; settings: 72 h
Duck hepatitis B virus [14] = assay: Antiviral activity against duck Hepatitis B virus infected in duck assessed as inhibition of viral DNA replication in serum at 0.04 mg/kg/day, po treatment initiated at day 10 after infection relative to control; assay type: functional; settings: 240 h
Duck hepatitis B virus [15] = assay: Antiviral activity against duck Hepatitis B virus infected in duck assessed as inhibition of viral DNA replication in liver at 0.2 mg/kg/day, po treatment initiated at day 5 after infection relative to control; assay type: functional; settings: 120 h
Rattus norvegicus [16] = organism: Rattus norvegicus; assay: Drug metabolism in rat urine sample assessed as 4-amino-1-((2R,3S,4R,5R)-5-azido-3-fluoro-4-hydroxy-5-(hydroxymethyl)tetrahydrofuran-2-yl)pyrimidin-2(1H)-one formation by LC-MS/MS analysis; assay type: ADME, organism-based; settings: in vivo
Duck hepatitis B virus [17] = assay: Antiviral activity against duck Hepatitis B virus infected in po dosed duck assessed as inhibition of viral DNA replication in serum; assay type: functional, organism-based
Duck hepatitis B virus [18] = assay: Antiviral activity against duck Hepatitis B virus infected in duck assessed as inhibition of viral DNA replication in serum at 0.04 mg/kg/day, po measured after 3 days of treatment withdrawal; assay type: functional; settings: 72 h
Rattus norvegicus [19] = organism: Rattus norvegicus; assay: Drug metabolism in rat urine sample assessed as 1-((2R,3S,4R,5R)-5-azido-3-fluoro-4-hydroxy-5-(hydroxymethyl)tetrahydrofuran-2-yl)-4-(2,3-dihydroxycyclopropylamino)pyrimidin-2(1H)-one formation by LC-MS/MS analysis; assay type: ADME, organism-based; settings: in vivo
Mus musculus [20] = assay: Acute toxicity in KM mouse assessed as morbidity at 3 g/kg, iv suspended in 0.5% CMC/Na solution after 14 days; assay type: organism-based; settings: in vivo, 3000 mg/kg, 336 h
Mus musculus [21] = assay: Acute toxicity in KM mouse assessed as mortality at 3 g/kg, iv suspended in 0.5% CMC/Na solution after 14 days; assay type: organism-based; settings: in vivo, 3000 mg/kg, 336 h
Hepatitis B virus [22] = assay: Antiviral activity against Hepatitis B virus in HepG2.2.15 cells assessed as inhibition of extracellular viral DNA replication at 5 uM after 3 days by real-time FQ-PCR analysis; assay type: functional; settings: HepG2 2.2.15, 72 h
Duck hepatitis B virus [23] = assay: Antiviral activity against duck Hepatitis B virus infected in duck assessed as inhibition of viral DNA replication in liver at 0.04 mg/kg/day, po treatment initiated at day 5 after infection relative to control; assay type: functional; settings: 120 h
Duck hepatitis B virus [24] = assay: Antiviral activity against duck Hepatitis B virus infected in duck assessed as inhibition of viral DNA replication in serum at 1 mg/kg/day, po measured after 3 days of treatment withdrawal; assay type: functional; settings: 72 h
Mus musculus [25] = assay: Toxicity in KM mouse assessed as micronucleus frequency in bone marrow polychromatic erythrocyte at 20 mg/kg, po single dose after 48 hrs (reference value: 2.20 +/- 0.84 %); assay type: organism-based; settings: in vivo
Duck hepatitis B virus [26] = assay: Antiviral activity against duck Hepatitis B virus infected in duck assessed as inhibition of viral DNA replication in serum at 1 mg/kg/day, po treatment initiated at day 10 after infection relative to control; assay type: functional; settings: 240 h
Duck hepatitis B virus [27] = assay: Antiviral activity against duck Hepatitis B virus infected in duck assessed as inhibition of viral DNA replication in serum at 0.04 to 20 mg/kg, po; assay type: functional, organism-based; settings: TDE = time-dependent effect
Duck hepatitis B virus [28] = assay: Antiviral activity against duck Hepatitis B virus infected in duck assessed as inhibition of viral DNA replication in liver at 1 mg/kg/day, po treatment initiated at day 10 after infection relative to control; assay type: functional; settings: 240 h
Liver microsome = assay: Drug metabolism in rat liver microsomes assessed as 1-((2R,3S,4R,5R)-5-azido-3-fluoro-4-hydroxy-5-(hydroxymethyl)tetrahydrofuran-2-yl)-4-(2-hydroxycyclopropylamino)pyrimidin-2(1H)-one formation after 2 hrs by LC-MS/MS analysis; assay type: ADME
Hepatitis B virus [29] = assay: Antiviral activity against Hepatitis B virus in HepG2.2.15 cells assessed as inhibition of extracellular viral DNA replication at 1 uM after 6 days by real-time FQ-PCR analysis; assay type: functional; settings: HepG2 2.2.15, 144 h
Rattus norvegicus [30] = assay: In vivo drug metabolism in rat plasma sample assessed as 1-((2R,3S,4R,5R)-5-azido-3-fluoro-4-hydroxy-5-(hydroxymethyl)tetrahydrofuran-2-yl)-4-(2-hydroxycyclopropylamino)pyrimidin-2(1H)-one formation by LC-MS/MS analysis; assay type: ADME, organism-based
Hepatitis B virus [31] = assay: Antiviral activity against Hepatitis B virus in HepG2.2.15 cells assessed as inhibition of intracellular viral DNA replication at 5 uM after 6 days by real-time FQ-PCR analysis; assay type: functional; settings: HepG2 2.2.15, 144 h

[N-]=[N+]=N[C@]1(CO)O[C@@H](n2ccc(NC3CC3)nc2=O)[C@@H](F)[C@@H]1O
inhibition in vivo at 0.04 mg/kg/day (Duck hepatitis B virus [1]): 48.1%
inhibition at 1 µM (Hepatitis B virus [2]): 56.9%
inhibition at 0.2 µM (Hepatitis B virus [3]): 52%
inhibition at 0.2 µM (Hepatitis B virus [4]): 33.8%
Activity (Mus musculus [5]): 9.13 ×10⁹ /L
inhibition at 1 µM (Hepatitis B virus [6]): 86.6%
Activity (Mus musculus [7]): 8.26 ×10⁹ /L
Drug metabolism (Rattus norvegicus [8]): metabolite_detected
Activity (Mus musculus [9]): 1.4%
inhibition in vivo at 0.2 mg/kg/day (Duck hepatitis B virus [10]): 68.7%
Activity (Mus musculus [11]): 2.8%
inhibition at 5 µM (Hepatitis B virus [12]): 87.6%
inhibition in vivo at 0.04 mg/kg/day (Duck hepatitis B virus [13]): 58.8%
inhibition in vivo at 0.04 mg/kg/day (Duck hepatitis B virus [14]): 43.4%
inhibition in vivo at 0.2 mg/kg/day (Duck hepatitis B virus [15]): 52.7%
Drug metabolism (Rattus norvegicus [16]): metabolite_detected
inhibition (Duck hepatitis B virus [17]): Dose-dependent effect
inhibition in vivo at 0.04 mg/kg/day (Duck hepatitis B virus [18]): 47.1%
Drug metabolism (Rattus norvegicus [19]): metabolite_detected
Activity (Mus musculus [20]): Non-toxic
Activity (Mus musculus [21]): Non-toxic
inhibition at 5 µM (Hepatitis B virus [22]): 53%
inhibition in vivo at 0.04 mg/kg/day (Duck hepatitis B virus [23]): 34.8%
inhibition in vivo at 1 mg/kg/day (Duck hepatitis B virus [24]): 69.9%
Activity (Mus musculus [25]): 1.6%
inhibition in vivo at 1 mg/kg/day (Duck hepatitis B virus [26]): 74.2%
inhibition (Duck hepatitis B virus [27]): tde
inhibition in vivo at 1 mg/kg/day (Duck hepatitis B virus [28]): 82.1%
Drug metabolism (Liver microsome): metabolite_detected
inhibition at 1 µM (Hepatitis B virus [29]): 76.7%
Drug metabolism (Rattus norvegicus [30]): metabolite_detected
inhibition at 5 µM (Hepatitis B virus [31]): 53%
